According to ChEMBL document CHEMBL1136599, “Design, synthesis, and structure-activity relationships of substituted piperazinone-based transition state factor Xa inhibitors” (Bioorg Med Chem Lett, 2003):

Legend:
[1] = target: Coagulation factor X (Homo sapiens, UniProt P00742); assay: In vitro inhibitory activity against factor Xa
[2] = target: Prothrombin (Homo sapiens, UniProt P00734); assay: In vitro inhibitory activity against serine protease thrombin

Chain of Coagulation factor X (P00742 41-179 limits assumed): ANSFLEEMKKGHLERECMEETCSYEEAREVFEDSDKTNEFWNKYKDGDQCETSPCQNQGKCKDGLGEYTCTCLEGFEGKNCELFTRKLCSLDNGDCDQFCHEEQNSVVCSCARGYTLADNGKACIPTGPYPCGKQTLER
Chain of Coagulation factor X (P00742 235-488 limits assumed): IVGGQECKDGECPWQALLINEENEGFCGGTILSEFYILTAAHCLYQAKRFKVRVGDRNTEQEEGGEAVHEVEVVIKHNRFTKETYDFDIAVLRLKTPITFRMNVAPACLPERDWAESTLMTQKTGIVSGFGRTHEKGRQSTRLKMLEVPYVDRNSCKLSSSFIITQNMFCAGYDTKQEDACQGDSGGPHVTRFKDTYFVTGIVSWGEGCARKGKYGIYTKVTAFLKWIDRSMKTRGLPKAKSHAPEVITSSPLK

SMILES | IC50 [1] | IC50 [2]
N=C(N)NCCC[C@H](NC(=O)CN1CC(=O)N[C@@H](CCCNC(=N)N)C1=O)C(=O)c1nccs1 | 11 nM | 150000 nM
N=C(N)NCCC[C@H](NC(=O)CN1CCN(S(=O)(=O)Cc2ccccc2)[C@@H](CCCNC(=N)N)C1=O)C(=O)c1nccs1 | 3 nM | 12000 nM
CCOC(=O)C[C@H]1C(=O)N(CC(=O)N[C@@H](CCCN=C(N)N)C(=O)c2nccs2)CCN1S(=O)(=O)Cc1ccccc1 | 32 nM | 4000 nM
N=C(N)NCCC[C@H](NC(=O)CN1CC(=O)N[C@H](CCCNC(=N)N)C1=O)C(=O)c1nccs1 | 21 nM | 200000 nM
N=C(N)NCCC[C@H](NC(=O)CN1CCN[C@H](Cc2ccccc2)C1=O)C(=O)c1nccs1 | – | 22000 nM
N=C(N)NCCC[C@H](NC(=O)CN1CCN(S(=O)(=O)Cc2ccccc2)[C@@H](Cc2ccccc2)C1=O)C(=O)c1nccs1 | 0.9 nM | 507 nM
N=C(N)NCCC[C@H](NC(=O)CN1CCN(S(=O)(=O)Cc2ccccc2)[C@H](CCCNC(=N)N)C1=O)C(=O)c1nccs1 | 13 nM | 3000 nM
CCOC(=O)C[C@@H]1C(=O)N(CC(=O)N[C@@H](CCCN=C(N)N)C(=O)c2nccs2)CCN1S(=O)(=O)Cc1ccccc1 | 7 nM | 3000 nM
N=C(N)NCCC[C@H](NC(=O)CN1CCN[C@@H](Cc2ccccc2)C1=O)C(=O)c1nccs1 | 888 nM | 2000 nM
N=C(N)NCCC[C@H](NC(=O)CN1CCN(S(=O)(=O)Cc2ccccc2)[C@@H](CC(=O)N2CCCCC2)C1=O)C(=O)c1nccs1 | 154 nM | 60000 nM
CS(=O)(=O)N1CCN(CC(=O)N[C@@H](CCCN=C(N)N)C(=O)c2nccs2)C(=O)[C@H]1Cc1ccccc1 | 144 nM | 2000 nM
CS(=O)(=O)N1CCN(CC(=O)N[C@@H](CCCNC(=N)N)C(=O)c2nccs2)C(=O)[C@@H]1Cc1ccccc1 | 459 nM | 642 nM
N=C(N)NCCC[C@H](NC(=O)CN1CCN(S(=O)(=O)Cc2ccccc2)[C@H](CCC(=O)O)C1=O)C(=O)c1nccs1 | 4 nM | 5000 nM
N=C(N)NCCC[C@@H](NS(=O)(=O)Cc1ccccc1)C(=O)NC(=O)CN[C@H](CCCNC(=N)N)C(=O)c1nccs1 | 13 nM | –
N=C(N)NCCC[C@H](NC(=O)CN1CCN[C@@H](CCCNC(=N)N)C1=O)C(=O)c1nccs1 | 20 nM | 12000 nM
N=C(N)NCCC[C@H](NC(=O)CN1C=CN[C@@H](CCCNC(=N)N)C1=O)C(=O)c1nccs1 | 307 nM | 140000 nM
N=C(N)NCCC[C@H](NC(=O)CN1CCN(S(=O)(=O)Cc2ccccc2)[C@H](CC(=O)O)C1=O)C(=O)c1nccs1 | 31 nM | 40000 nM
COC(=O)C[C@@H]1C(=O)N(CC(=O)N[C@@H](CCCNC(=N)N)C(=O)c2nccs2)CCN1S(=O)(=O)Cc1ccccc1 | 8 nM | 5000 nM
N=C(N)NCCC[C@H](NC(=O)CN1CCN(S(=O)(=O)Cc2ccccc2)[C@H](CC(=O)N2CCCCC2)C1=O)C(=O)c1nccs1 | 37 nM | 8000 nM
N=C(N)NCCCC(NC(=O)CNC(=O)[C@@H](Cc1ccccc1)NS(=O)(=O)Cc1ccccc1)C(=O)c1nccs1 (stereo not given in full) | 2 nM | –
N=C(N)NCCCC(NC(=O)CN1CCN(S(=O)(=O)Cc2ccccc2)CC1=O)C(=O)c1nccs1 (stereo not given) | 4 nM | –
N=C(N)NCCC[C@H](NC(=O)CN1CCN(S(=O)(=O)Cc2ccccc2)[C@H](Cc2ccccc2)C1=O)C(=O)c1nccs1 | 59 nM | 2000 nM
COC(=O)CC[C@@H]1C(=O)N(CC(=O)N[C@@H](CCCNC(=N)N)C(=O)c2nccs2)CCN1S(=O)(=O)Cc1ccccc1 | 1 nM | 2000 nM
N=C(N)NCCC[C@H](NC(=O)CN1CCN(S(=O)(=O)Cc2ccccc2)[C@H](CO)C1=O)C(=O)c1nccs1 | 6 nM | 2000 nM
N=C(N)NCCC[C@H](NC(=O)CN1CCN(S(=O)(=O)Cc2ccccc2)[C@@H](CC(=O)O)C1=O)C(=O)c1nccs1 | 370 nM | 325000 nM
COC(=O)C[C@H]1C(=O)N(CC(=O)N[C@@H](CCCNC(=N)N)C(=O)c2nccs2)CCN1S(=O)(=O)Cc1ccccc1 | 85 nM | 1000 nM
N=C(N)NCCC[C@H](NC(=O)CN1CCN(S(=O)(=O)Cc2ccccc2)[C@H](CCC(=O)N2CCCCC2)C1=O)C(=O)c1nccs1 | 4 nM | 3000 nM
